Key:
ISC-enriched organoids [1] = experiment: Primary screen, 384-well 2.5-D organoid differentiation (ENR+CD, 6 days, Target Selective Inhibitor Library, vs whole-plate median): ATP (CellTiter-Glo 3D, CTG); conditions: for SSMD.CTG: strictly standardized mean difference; for Dose.FC.CTG: FC vs plate median; for Dose.FC.CTG (log 2 fold change, ATP): vs plate median
ISC-enriched organoids [2] = experiment: Primary screen, 384-well 2.5-D organoid differentiation (ENR+CD, 6 days): carbachol-induced lysozyme secretion (LYZ.S); type: cell-based, murine; conditions: for Z.LYZ.S: standard z score; for Z.LYZ.S / SSMD.LYZ.S / Dose.FC.LYZ.S: primary screen; for SSMD.LYZ.S: strictly standardized mean difference; for Dose.FC.LYZ.S: FC vs plate median; for Dose.FC.LYZ.S (log 2 fold change, carbachol-induced lysozyme secretion): vs plate median
Text: (§1) High-throughput screening.

ISC-enriched organoids [3] = experiment: Primary screen, 384-well 2.5-D organoid differentiation (ENR+CD, 6 days): basal lysozyme secretion (LYZ.NS); type: cell-based, murine; conditions: for SSMD.LYZ.NS: strictly standardized mean difference; for SSMD.LYZ.NS / Dose.FC.LYZ.NS: primary screen; for Dose.FC.LYZ.NS: FC vs plate median; for Z.LYZ.NS: standard z score of FC; for Dose.FC.LYZ.NS (log 2 fold change, basal lysozyme secretion): vs plate median
Text: as §1

[4] = 1st of the 4 dose lines of the treatment (dose not given)
[5] = 2nd of the 4 dose lines of the treatment (dose not given)
[6] = 3rd of the 4 dose lines of the treatment (dose not given)
[7] = 4th of the 4 dose lines of the treatment (dose not given)

Cc1cc(Nc2ncc(Cl)c(Nc3ccccc3S(=O)(=O)C(C)C)n2)c(OC(C)C)cc1C1CCNCC1 [LDK378]
Z.CTG (ISC-enriched organoids [1]; Dose 0.08 uM, primary screen, standard z score): 0.322
Z.CTG (ISC-enriched organoids [1]; Dose 0.40 uM, primary screen, standard z score): 0.010
Z.CTG (ISC-enriched organoids [1]; Dose 2.00 uM, primary screen, standard z score): −0.869
Z.CTG (ISC-enriched organoids [1]; Dose 10.00 uM, primary screen, standard z score): −3.087
SSMD.CTG (ISC-enriched organoids [1]; primary screen, 1st of the 4 dose lines of the treatment (dose not given)): 0.320
SSMD.CTG (ISC-enriched organoids [1]; primary screen, 2nd of the 4 dose lines of the treatment (dose not given)): 0.013
SSMD.CTG (ISC-enriched organoids [1]; primary screen, 3rd of the 4 dose lines of the treatment (dose not given)): −0.596
SSMD.CTG (ISC-enriched organoids [1]; primary screen, 4th of the 4 dose lines of the treatment (dose not given)): −1.329
Z.LYZ.S (ISC-enriched organoids [2]; [4]): 0.763
Z.LYZ.S (ISC-enriched organoids [2]; [5]): −0.306
Z.LYZ.S (ISC-enriched organoids [2]; [6]): −1.817
Z.LYZ.S (ISC-enriched organoids [2]; [7]): −3.149
SSMD.LYZ.S (ISC-enriched organoids [2]; [4]): 0.574
SSMD.LYZ.S (ISC-enriched organoids [2]; [5]): −0.290
SSMD.LYZ.S (ISC-enriched organoids [2]; [6]): −1.400
SSMD.LYZ.S (ISC-enriched organoids [2]; [7]): −2.075
SSMD.LYZ.NS (ISC-enriched organoids [3]; [4]): 0.246
SSMD.LYZ.NS (ISC-enriched organoids [3]; [5]): −0.527
SSMD.LYZ.NS (ISC-enriched organoids [3]; [6]): −1.818
SSMD.LYZ.NS (ISC-enriched organoids [3]; [7]): −2.550

O=c1cc(N2CCOCC2)oc2c1ccc1ccccc12 [NU7026]
Dose.FC.CTG (ISC-enriched organoids [1]; Dose 0.08 uM, primary screen): 0.096 log 2 fold change
Z.CTG (ISC-enriched organoids [1]; Dose 0.08 uM, standard z score of FC): 0.230
Dose.FC.CTG (ISC-enriched organoids [1]; Dose 0.40 uM, primary screen): 0.104 log 2 fold change
Z.CTG (ISC-enriched organoids [1]; Dose 0.40 uM, standard z score of FC): 0.248
Dose.FC.CTG (ISC-enriched organoids [1]; Dose 2.00 uM, primary screen): 0.107 log 2 fold change
Z.CTG (ISC-enriched organoids [1]; Dose 2.00 uM, standard z score of FC): 0.255
Dose.FC.CTG (ISC-enriched organoids [1]; Dose 10.00 uM, primary screen): −0.119 log 2 fold change
Z.CTG (ISC-enriched organoids [1]; Dose 10.00 uM, standard z score of FC): −0.284
Dose.FC.LYZ.S (ISC-enriched organoids [2]; Dose 0.08 uM): 0.021 log 2 fold change
Dose.FC.LYZ.S (ISC-enriched organoids [2]; Dose 0.40 uM): 0.034 log 2 fold change
Dose.FC.LYZ.S (ISC-enriched organoids [2]; Dose 2.00 uM): −0.056 log 2 fold change
Dose.FC.LYZ.S (ISC-enriched organoids [2]; Dose 10.00 uM): −0.198 log 2 fold change
Dose.FC.LYZ.NS (ISC-enriched organoids [3]; Dose 0.08 uM): 0.023 log 2 fold change
Z.LYZ.NS (ISC-enriched organoids [3]; Dose 0.08 uM): 0.198
Dose.FC.LYZ.NS (ISC-enriched organoids [3]; Dose 0.40 uM): 0.023 log 2 fold change
Z.LYZ.NS (ISC-enriched organoids [3]; Dose 0.40 uM): 0.198
Dose.FC.LYZ.NS (ISC-enriched organoids [3]; Dose 2.00 uM): −0.058 log 2 fold change
Z.LYZ.NS (ISC-enriched organoids [3]; Dose 2.00 uM): −0.507
Dose.FC.LYZ.NS (ISC-enriched organoids [3]; Dose 10.00 uM): −0.158 log 2 fold change
Z.LYZ.NS (ISC-enriched organoids [3]; Dose 10.00 uM): −1.380

C[C@@H]1CCN(C(=O)CC#N)C[C@@H]1N(C)c1ncnc2[nH]ccc12 [Tofacitinib (CP-690550, Tasocitinib)]
Z.CTG (standard z score) (ISC-enriched organoids [1]; dose 0.08 uM): 0.312
Dose.FC.CTG (log 2 fold change, ATP) (ISC-enriched organoids [1]; dose 0.08 uM): 0.130
Z.CTG (standard z score) (ISC-enriched organoids [1]; dose 0.40 uM): 0.595
Dose.FC.CTG (log 2 fold change, ATP) (ISC-enriched organoids [1]; dose 0.40 uM): 0.249
Z.CTG (standard z score) (ISC-enriched organoids [1]; dose 2.00 uM): 0.278
Dose.FC.CTG (log 2 fold change, ATP) (ISC-enriched organoids [1]; dose 2.00 uM): 0.117
Z.CTG (standard z score) (ISC-enriched organoids [1]; dose 10.00 uM): 0.563
Dose.FC.CTG (log 2 fold change, ATP) (ISC-enriched organoids [1]; dose 10.00 uM): 0.236
Dose.FC.LYZ.S (log 2 fold change, carbachol-induced lysozyme secretion) (ISC-enriched organoids [2]; dose 0.08 uM): 0.022
Dose.FC.LYZ.S (log 2 fold change, carbachol-induced lysozyme secretion) (ISC-enriched organoids [2]; dose 0.40 uM): 0.010
Dose.FC.LYZ.S (log 2 fold change, carbachol-induced lysozyme secretion) (ISC-enriched organoids [2]; dose 2.00 uM): 0.025
Dose.FC.LYZ.S (log 2 fold change, carbachol-induced lysozyme secretion) (ISC-enriched organoids [2]; dose 10.00 uM): 0.010
Z.LYZ.NS (standard z score) (ISC-enriched organoids [3]; dose 0.08 uM): −0.146
Dose.FC.LYZ.NS (log 2 fold change, basal lysozyme secretion) (ISC-enriched organoids [3]; dose 0.08 uM): −0.017
Z.LYZ.NS (standard z score) (ISC-enriched organoids [3]; dose 0.40 uM): −0.132
Dose.FC.LYZ.NS (log 2 fold change, basal lysozyme secretion) (ISC-enriched organoids [3]; dose 0.40 uM): −0.015
Z.LYZ.NS (standard z score) (ISC-enriched organoids [3]; dose 2.00 uM): −0.061
Dose.FC.LYZ.NS (log 2 fold change, basal lysozyme secretion) (ISC-enriched organoids [3]; dose 2.00 uM): −0.007
Z.LYZ.NS (standard z score) (ISC-enriched organoids [3]; dose 10.00 uM): −0.036
Dose.FC.LYZ.NS (log 2 fold change, basal lysozyme secretion) (ISC-enriched organoids [3]; dose 10.00 uM): −0.004

— patent US20230398130A1, “METHODS AND COMPOSITIONS FOR DIFFERENTIATING STEM CELLS” (Massachusetts Institute of Technology, priority 2020, published 2023)
